Here are results for 13 compounds from US8119614B2, “Substitution derivatives of N6-benzyladenosine, methods of their preparation, their use for preparation of drugs, cosmetic preparations and growth regulators, pharmaceutical preparations, cosmetic preparations and growth regulators containing these compounds” (Ustav Experimentalni Botaniky Akademie Ved Ceske Republiky, priority 2002, dated 2012).

The test system of assay [1] is mouse fibroblasts NIH3T3. Kind of assay: In vitro cytotoxic activity, Calcein AM assay, NIH-3T3. Type of assay: cell-based. The note with it: 72 hours, read-out: IC 50 NIH-3T3. The gist of the method:
(§1)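 GI50 values come from dose-response curves of Calcein AM fluorescence, normalised to control wells, after 72 h compound exposure. Cells grown in DMEM with 10% fetal calf serum; routine highest concentration 166.7 μM, duplicates.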

In assay [2] the test system is Amaranthus caudatus cotyledon/hypocotyl explants. Description: Amaranthus bioassay (betacyanin content). Type of assay: in vivo. The note with it: for Concentration with highest activity: 48 h dark; for Activity (%) [10^−5 mol · l^−1 BAP = 100%]: at concentration with highest activity. An outline of the steps:
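Surface-sterilised Amaranthus caudatus var. atropurpurea seeds were germinated 72 h at 25° C. in darkness, then de-rooted. Cotyledon/hypocotyl explants (20 per dish) were incubated under green safe light on filter paper with 1 ml medium of 10 μmol NA2HPO4-KH2PO4, pH 6.8, 5 μmol tyrosine and cytokinin (10^-8M to 10^-4M) for 48 h at 25° C. in darkness. Betacyanin was extracted in […] acetic acid and measured by absorbance at 537 nm and 620 nm.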

Assay [3] relates to Triticum aestivum cv. Hereward. Description: Senescence inhibition on winter wheat leaf segments (chlorophyll retention). To be noted: for Concentration with highest activity: chlorophyll retention in excised wheat leaf tips, 96 h dark; for Activity (%) [10^−4 mol · l^−1 BAP = 100%]: chlorophyll retention, at concentration with highest activity. Type of assay: in vivo. The gist of the method: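 Tip segments of the first leaf from 7-day wheat seedlings held, basal ends down, in cytokinin solutions (10^−8M to 10^−4M) for 96 h at 25° C in darkness. Chlorophyll extracted in 80% ethanol at 80° C, read at 665 nm; activity at best concentration given relative to 10^−4 M BAP (100%), means of five replicates.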

Assay [4] has as its system Human T-lymphoblastic leukemia cell line CEM. Kind of assay: In vitro cytotoxic activity, Calcein AM assay, CEM. Type of assay: cell-based. To be noted: 72 hours. The gist of the method:
as §1

Assay [5] concerns HOS. Description: In vitro cytotoxic activity, Calcein AM assay, HOS. The note with it: 72 hours. Type of assay: cell-based.
The subject of assay [6] is human erythroleukaemia K562. Description: In vitro cytotoxic activity, Calcein AM assay, K-562. Type of assay: cell-based. To be noted: 72 hours, read-out: IC 50 K-562. The gist of the method:
as §1

The subject of assay [7] is breast carcinoma cell lines MCF-7. Kind of assay: In vitro cytotoxic activity, Calcein AM assay, MCF7. Type of assay: cell-based, human. The note with it: 72 hours, read-out: IC 50 MCF7. An outline of the steps: as §1
In assay [8] the test system is promyelocytic HL-60. Description: In vitro cytotoxic activity, Calcein AM assay, HL60. Type of assay: cell-based, human. To be noted: 72 hours, read-out: IC 50 HL60. An outline of the steps: as §1

The structures appear in SMILES notation.

As for `Cc1cccc(CNc2ncnc3c2ncn3[C@@H]2O[C@H](CO)[C@@H](O)[C@H]2O)c1` [3-methylbenzylamino, 6-(3-methylbenzylamino)purine riboside], the IC50 in assay [1] is greater than 167 µM; in assay [4], 19.1 µM; in assay [5], greater than 167 µM; in assay [6], greater than 167 µM; in assay [7], greater than 167 µM; in assay [8], 6.4 µM. In addition, the “Concentration with highest activity” value in assay [2] was 10^−5 mol · l^−1; in assay [3], 10^−4 mol · l^−1. Also, in assay [2], the “Activity (%) [10^−5 mol · l^−1 BAP = 100%]” value came to 103 ± 16%. Further, the “Activity (%) [10^−4 mol · l^−1 BAP = 100%]” value in assay [3] was found to be 143 ± 9%.
As to `OC[C@H]1O[C@@H](n2cnc3c(NCc4cccc(Cl)c4)ncnc32)[C@H](O)[C@@H]1O` [3-chlorobenzylamino, 6-(3-chlorobenzylamino)purine riboside], the IC50 in assay [1] is greater than 167 µM; in assay [4], 1.6 µM; in assay [5], greater than 167 µM; in assay [6], 30.4 µM; in assay [7], greater than 167 µM; in assay [8], 0.75 µM. The results for the “Concentration with highest activity” value in assay [2] and in assay [3] were 10^−5 mol · l^−1 and 10^−4 mol · l^−1, respectively. Also, in assay [2], the “Activity (%) [10^−5 mol · l^−1 BAP = 100%]” value turned out to be 139 ± 12%. In assay [3], the “Activity (%) [10^−4 mol · l^−1 BAP = 100%]” value came to 72 ± 8%.
For `OC[C@H]1O[C@@H](n2cnc3c(NCc4ccccc4F)ncnc32)[C@H](O)[C@@H]1O` [2-fluorobenzylamino, 6-(2-fluorobenzylamino)purine riboside], the “Concentration with highest activity” value in assay [2] and in assay [3] was 10^−4 mol · l^−1 each time. Further, the “Activity (%) [10^−5 mol · l^−1 BAP = 100%]” value in assay [2] was found to be 96 ± 2%. Besides, the “Activity (%) [10^−4 mol · l^−1 BAP = 100%]” value in assay [3] came to 118 ± 19%. For the same compound, the IC50 in assay [4] was 4.6 µM; in assay [5], greater than 167 µM; in assay [6], 33.2 µM; in assay [7], greater than 167 µM; in assay [8], 3.2 µM.
For the compound `OC[C@H]1O[C@@H](n2cnc3c(NCc4cccc(Br)c4)ncnc32)[C@H](O)[C@@H]1O` [3-bromobenzylamino, 6-(3-bromobenzylamino)purine riboside], the IC50 in assay [1] was greater than 167 µM; in assay [4], 5 µM; in assay [5] it was greater than 167 µM; in assay [6], 19.7 µM; in assay [7] it was greater than 167 µM; in assay [8], 8 µM. Also, the “Concentration with highest activity” value in assay [2] and in assay [3] was 10^−4 mol · l^−1 each time. For the same compound, the “Activity (%) [10^−5 mol · l^−1 BAP = 100%]” value in assay [2] is 151 ± 16%. In addition, the “Activity (%) [10^−4 mol · l^−1 BAP = 100%]” value in assay [3] worked out at 89 ± 10%.
With `COc1cccc(CNc2ncnc3c2ncn3[C@@H]2O[C@H](CO)[C@@H](O)[C@H]2O)c1` [3-methoxybenzylamino, 6-(3-methoxybenzylamino)purine riboside], the IC50 was greater than 167 µM in assay [1]; 7.6 µM in assay [4]; greater than 167 µM in assay [5]; greater than 167 µM in assay [6]; greater than 167 µM in assay [7]; 4.9 µM in assay [8]. The “Concentration with highest activity” value in assay [2] and in assay [3] was 10^−4 mol · l^−1 in each case. Moreover, the “Activity (%) [10^−5 mol · l^−1 BAP = 100%]” value in assay [2] came to 98 ± 10%. The “Activity (%) [10^−4 mol · l^−1 BAP = 100%]” value in assay [3] turned out to be 209 ± 8%.
In the case of `Cc1ccccc1CNc1ncnc2c1ncn2[C@@H]1O[C@H](CO)[C@@H](O)[C@H]1O` [2-methylbenzylamino, 6-(2-methylbenzylamino)purine riboside], the IC50 in assay [1] was greater than 167 µM; in assay [4], 14 µM; in assay [5], greater than 167 µM; in assay [6] it was greater than 167 µM; in assay [7], greater than 167 µM; in assay [8], 3.3 µM. The entries for the “Concentration with highest activity” value in assay [2] and in assay [3] were 10^−5 mol · l^−1 and 10^−4 mol · l^−1, respectively. Moreover, in assay [2], the “Activity (%) [10^−5 mol · l^−1 BAP = 100%]” value is on record as 105 ± 14%. Also, in assay [3], the “Activity (%) [10^−4 mol · l^−1 BAP = 100%]” value was determined as 142 ± 6%.
For `OC[C@H]1O[C@@H](n2cnc3c(NCc4ccccc4Cl)ncnc32)[C@H](O)[C@@H]1O` [2-chlorobenzylamino, 6-(2-chlorobenzylamino)purine riboside], the IC50 in assay [1] was greater than 167 µM; in assay [4], 14.5 µM; in assay [5] it was greater than 167 µM; in assay [6] it was 64 µM; in assay [7], greater than 167 µM; in assay [8], 1.6 µM. Further, the results for the “Concentration with highest activity” value in assay [2] and in assay [3] were 10^−5 mol · l^−1 and 10^−4 mol · l^−1, respectively. The “Activity (%) [10^−5 mol · l^−1 BAP = 100%]” value in assay [2] came out at 113 ± 7%. In addition, the “Activity (%) [10^−4 mol · l^−1 BAP = 100%]” value in assay [3] was 119 ± 9%.
Regarding `OC[C@H]1O[C@@H](n2cnc3c(NCc4ccc(F)cc4)ncnc32)[C@H](O)[C@@H]1O` [4-fluorobenzylamino, 6-(4-fluorobenzylamino)purine riboside], the IC50 in assay [1] was greater than 167 µM; in assay [4], 1.5 µM; in assay [5], 20 µM; in assay [6], 6.4 µM; in assay [7], 14 µM; in assay [8] it was 0.86 µM. Besides, the entries for the “Concentration with highest activity” value in assay [2] and in assay [3] were 10^−5 mol · l^−1 and 10^−4 mol · l^−1, respectively. Besides, the “Activity (%) [10^−5 mol · l^−1 BAP = 100%]” value in assay [2] turned out to be 71 ± 4%. Further, the “Activity (%) [10^−4 mol · l^−1 BAP = 100%]” value in assay [3] was 148 ± 2%.
With `COc1ccccc1CNc1ncnc2c1ncn2[C@@H]1O[C@H](CO)[C@@H](O)[C@H]1O` [2-methoxybenzylamino, 6-(2-methoxybenzylamino)purine riboside], the IC50 was greater than 167 µM in assay [1]; 3.2 µM in assay [4]; 21.2 µM in assay [5]; 11.2 µM in assay [6]; greater than 167 µM in assay [7]; 2.3 µM in assay [8]. Further, the “Concentration with highest activity” value in assay [2] is on record as 10^−5 mol · l^−1; in assay [3] it was 10^−4 mol · l^−1. In assay [2], the “Activity (%) [10^−5 mol · l^−1 BAP = 100%]” value turned out to be 86 ± 4%. The “Activity (%) [10^−4 mol · l^−1 BAP = 100%]” value in assay [3] is listed as 198 ± 12%.
For `COc1cccc(CNc2ncnc3c2ncn3[C@@H]2O[C@H](CO)[C@@H](O)[C@H]2O)c1O` [2-hydroxy-3-methoxybenzylamino, 6-(2-hydroxy-3-methoxybenzylamino)purine riboside], the IC50 in assay [1] is greater than 167 µM; in assay [4], 0.3 µM; in assay [5], greater than 167 µM; in assay [6], 19.2 µM; in assay [7], 27 µM; in assay [8], 0.15 µM. Besides, the “Concentration with highest activity” value in assay [2] and in assay [3] was 10^−4 mol · l^−1 throughout. In addition, the “Activity (%) [10^−5 mol · l^−1 BAP = 100%]” value in assay [2] came out at 18 ± 5%. Also, the “Activity (%) [10^−4 mol · l^−1 BAP = 100%]” value in assay [3] is listed as 30 ± 8%.
In the case of `OC[C@H]1O[C@@H](n2cnc3c(NCc4cccc(F)c4)ncnc32)[C@H](O)[C@@H]1O` [3-fluorobenzylamino, 6-(3-fluorobenzylamino)purine riboside], the IC50 in assay [1] was greater than 167 µM; in assay [4] it was 4 µM; in assay [5] it was greater than 167 µM; in assay [6], 7 µM; in assay [7], 16.6 µM; in assay [8], 0.92 µM. Also, the “Concentration with highest activity” value in assay [2] and in assay [3] was 10^−4 mol · l^−1 in each case. Moreover, the “Activity (%) [10^−5 mol · l^−1 BAP = 100%]” value in assay [2] was 92 ± 6%. Besides, the “Activity (%) [10^−4 mol · l^−1 BAP = 100%]” value in assay [3] is 220 ± 16%.
Take `OC[C@H]1O[C@@H](n2cnc3c(NCc4ccc(Cl)c(Cl)c4)ncnc32)[C@H](O)[C@@H]1O` [3,4-dichlorobenzylamino, 6-(3,4-dichlorobenzylamino)purine riboside]: the IC50 in assay [1] is greater than 167 µM; in assay [4], 3 µM; in assay [5], greater than 167 µM; in assay [6], 6.5 µM; in assay [7], 88.8 µM; in assay [8] it was 1.1 µM. The “Concentration with highest activity” value in assay [2] and in assay [3] was 10^−4 mol · l^−1 each time. Further, the “Activity (%) [10^−5 mol · l^−1 BAP = 100%]” value in assay [2] worked out at 68 ± 10%. Also, the “Activity (%) [10^−4 mol · l^−1 BAP = 100%]” value in assay [3] turned out to be 151 ± 29%.
As to `OC[C@H]1O[C@@H](n2cnc3c(NCc4ccc(Cl)cc4)ncnc32)[C@H](O)[C@@H]1O` [4-chlorobenzylamino, 6-(4-chlorobenzylamino)purine riboside], the IC50 in assay [1] was greater than 167 µM; in assay [4], 6.5 µM; in assay [5], greater than 167 µM; in assay [6], 16.1 µM; in assay [7], greater than 167 µM; in assay [8], 5.3 µM. The “Concentration with highest activity” value in assay [2] is given as 10^−5 mol · l^−1; in assay [3], 10^−4 mol · l^−1. In addition, the “Activity (%) [10^−5 mol · l^−1 BAP = 100%]” value in assay [2] was 35 ± 9%. Besides, in assay [3], the “Activity (%) [10^−4 mol · l^−1 BAP = 100%]” value came out at 104 ± 6%.
